Results from PubChem BioAssay (NCI).
Values joined by “and” are separate entries in the source; they are usually repeats but may differ in a detail not shown here. Equal values may be shown once.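 The compound was tested at five concentrations on cells cultured in 96-well plates, with a 48-hour exposure period. The concentration for 50% growth inhibition is given as GI50. TGI denotes the concentration required for complete inhibition of growth.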

Tests used:
Assay in all cases: NCI-60 cell line screen, 48 h
TK-10 renal = tested on: TK-10 renal
T-47D breast = tested on: T-47D breast
DU-145 prostate = tested on: DU-145 prostate
MCF7 breast = tested on: MCF7 breast
RPMI-8226 leukemia = tested on: RPMI-8226 leukemia
HS 578T breast = tested on: HS 578T breast
BT-549 breast = tested on: BT-549 breast

SMILES	TGI (TK-10 renal) [µM]	TGI (T-47D breast) [µM]	TGI (DU-145 prostate) [µM]	TGI (MCF7 breast) [µM]	TGI (RPMI-8226 leukemia) [µM]	TGI (HS 578T breast) [µM]	TGI (BT-549 breast) [µM]	GI50 (TK-10 renal)	GI50 (T-47D breast) [µM]	GI50 (DU-145 prostate)	GI50 (BT-549 breast) [µM]	GI50 (MCF7 breast) [µM]	GI50 (RPMI-8226 leukemia) [µM]	GI50 (HS 578T breast) [µM]
COc1ccc(CC2C3=C(CCCC3)CCN2C)cc1 (centres undefined)	> 100	> 100	> 100	> 100	> 100	> 100								
O=[N+]([O-])c1ccc(-c2cn(-c3ccc(Cl)cc3)cn2)cc1	67.5	> 100	> 100	> 100	> 100	> 100	> 100							
O=C1c2cccnc2C(=O)c2c1c(C(=O)OCCN1CCOCC1)c1ccccn21	2.72	5.25	1.31	0.041	4.65	10.8	2.62	0.163 µM	0.228	< 0.0175 µM	0.05	< 0.01	0.0914	0.0243
CCc1ccc(Nc2cc(C)nc3nc(C)nn23)cc1	> 100	> 100	> 100	> 100	> 100	> 100	> 100	61.7 µM	21.3	35.1 µM	> 100	36.7	32	39.3
CC(=O)c1ccc(NCN2C(=O)c3ccccc3C2=O)cc1	> 100	> 100	> 100	> 100	> 100	> 100	> 100							
COc1ccc(/C=C/C(=O)c2ccc(Nc3ccnc4cc(Cl)ccc34)cc2)cc1	> 100	> 100	> 100	> 42.3	> 55.6	> 100	> 100	> 100 µM	> 100	> 100 µM	> 100	2.85	4.94	> 100
C[C@@]1(N2C(=O)OC[C@@H]2c2ccccc2)C(=O)N([C@H](CC(=O)N2CCC(N3CCCCC3)CC2)C(=O)NCc2cccc(C(F)(F)F)c2)[C@@H]1/C=C/c1ccccc1	3.76	3.53	8.47	4.24	6.38	4.78	9.33	1.8 µM	1.77	2.79 µM	3.29	1.85	2.59	2.09
COC(=O)c1ccc(C2SCC(=O)N2NC(=O)C(O)c2ccccc2)cc1 (centres undefined)	> 100	> 100	> 100	> 100	> 100	> 100	> 100	> 100 µM	> 100	> 100 µM	> 100	> 100	> 100	> 100
COc1cc(C2C(C#N)=C(N)Oc3cc(O)ccc32)cc(OC)c1OC (centres undefined)	> 100		> 100	> 100	> 89.6	> 100	33.3	8.61 µM		0.659 µM	0.419	0.334	0.65	0.4
C/C(=N\NC(=O)c1ccncc1)c1ccc(O)cc1O	> 100	> 100	> 100	> 100	> 100	> 100	> 100	> 100 µM	11.4	3.63 µM	> 100	4.92	31.5	43.3
COc1ccc(Nc2ncccc2C(=O)NCc2cn(Cc3cccc(Oc4ccccc4)c3)nn2)cc1	> 100	> 100	> 100		> 100	> 100	> 100	4.59 µM	4.03	3.76 µM	4.58		4.84	5.9
O=c1cccc(C#CC#C/C=C/CO)o1	4.66	4.46	12.4		> 100	39.9	5.17	2.21 µM	2.36	3.4 µM	2.1	2.23	2.63	6.87
C[C@]12CC[C@H]3[C@@H](C[C@@H]4N=C(c5ccc(O)cc5)S[C@@]45C[C@H](O)CC[C@]35C)[C@@H]1CC[C@@H]2O	> 100	> 100	> 100	21.5	2.5	60.1	19.4	> 100 µM	10.3	9.54 µM	1.14	3.34	0.378	1.59
Nc1nc2c(c3cnccc13)C(c1cccc(Cl)c1)Cc1cnccc1-2 (centres undefined)	13.7	25.2	4.65	11.6	20.2	32.9	4.21	0.696 µM	0.384	0.309 µM	0.482	0.292	0.48	0.466
Cc1nc2cc(N)c(Cl)cc2[nH]1	> 100	> 100	> 100	> 100	> 100	> 100	> 100							
CC([O-])C(=O)[O-].NCC1CCC1CN.[Pt+4] (centres undefined)	> 10	> 10	> 10	> 10	> 10	> 10	> 10	> 10 µM	> 10	> 10 µM	> 10	6.89	> 10	> 10
CC[C@]12CCCN3CC[C@]4(C(=C(C(=O)OC)C1)Nc1ccccc14)[C@@H]32	56.7	80.5	35.2	33.8	51.2	76.1	46.7	19.9 µM	16.6	16.8 µM	19.8	16	19.4	17.3
O=C1OC2C(O)C(=O)OC2C1O (centres undefined)		> 100	> 100	> 100										
CN1CCCCC1CCN1c2ccccc2Sc2ccc(S(C)=O)cc21 (centres undefined)	> 100	> 100	> 100	> 100	> 100	> 100	> 100							
CCN(CC(COc1ccc2c(c1)[n+]([O-])nc(N)[n+]2[O-])OC(C)=O)C(C)=O (centres undefined)	> 100	> 100		> 100	> 100	> 100	> 100							
COc1ccc(-c2coc3cc(OC)cc(O)c3c2=O)cc1	84.4	> 100	> 100	> 100	> 100	> 100								
CCCN1CCN(c2ccc3nc(-c4ccc5nc(-c6ccc(OCC)c(OCC)c6)[nH]c5c4)[nH]c3c2)CC1	4.13	5.66	1.75		1.89	3.56	2.61	1.3 µM	0.428	0.436 µM	1.13		0.387	1.11
CSc1nc2c(c(=O)[nH]1)C(c1ccc(Cl)cc1)C1=C(N2)/C(=C/c2ccc(Cl)cc2)CNC1 (centres undefined)		15.7	11.6	5.85	3.14	84.1	3.68		3.65	3.36 µM	1.8	1.94	0.629	3.6
COc1ccc(-c2nocc2-c2cc(OC)c(OC)c(OC)c2)cc1	62.7		> 100	> 100	30.9	> 100	19.5	0.93 µM		0.286 µM	0.112	0.0387	0.348	0.216
O=S(=O)(NCCCNc1cc(-c2cn(-c3ccccc3)nc2-c2cccc(O)c2)ccn1)c1ccc(Cl)cc1	8.97	5.21	7.58	5.01	4.68	4.77		3.16 µM	1.48	2.33 µM		1.84	1.49	1.16
CC1=CC2C(C(C)C)CC1C1C(=O)OC(=O)C21 (centres undefined)	> 100	> 100	> 100	> 100		> 100	> 100							
Cn1c(=S)sc2nc3ccccc3n2c1=S	55.4	39.6	19	5.49	88.1	95.9								
COc1ccc(Cn2c(Br)c3c(c2-c2cc(OC)c(OC)c(OC)c2)CCc2sc(NC(C)=O)nc2-3)cc1	37.6	> 100	> 100	> 100	> 100		19.4	6.17 µM	4.65	4.44 µM	3.18	3.32	4.23	
CC(=O)OCC1OC(n2c(-c3ccccc3)c(C)c(C)c(C#N)c2=S)C(OC(C)=O)C(OC(C)=O)C1OC(C)=O (centres undefined)	> 100	> 100	> 100	> 100				48.6 µM and > 100 µM		36.9 µM and > 100 µM				
